Measurements as given in patent US20080125396A1, “Derivatives of Isothiazol-3(2H)-Thione 1,1-Dioxides as Liver X Receptor Modulators” (AtraZeneca AB, priority 2005, published 2008).

Biological target: T1, LXRα (Homo sapiens, UniProt Q13133)
T1 construct: human LXRalpha (amino acid 205-447); expressed in transfected cells; host or cells: U2/OS osteosarcoma cells electroporated with pSGGAL-LXRalpha (pSG5 vector)
T1 sequence (Q13133 205-447): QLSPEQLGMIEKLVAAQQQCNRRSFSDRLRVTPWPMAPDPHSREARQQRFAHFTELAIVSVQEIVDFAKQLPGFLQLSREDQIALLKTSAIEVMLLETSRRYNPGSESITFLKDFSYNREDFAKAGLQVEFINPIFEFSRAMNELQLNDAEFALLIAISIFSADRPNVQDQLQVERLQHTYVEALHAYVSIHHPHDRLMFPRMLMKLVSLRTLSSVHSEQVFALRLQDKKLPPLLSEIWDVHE
Experiment: Transactivation (reporter gene) assay in U2/OS cells
Type: cell-based
Conditions: GAL4-LXRalpha LBD luciferase reporter, U2/OS osteosarcoma cells, 48 h
Method: Expression vectors were prepared by inserting the ligand binding domain cDNA (complementary DNA) of human LXRalpha (amino acid 205-447) and LXRbeta (amino acid 216-461) in frame with, 3′ to the yeast GAL4 transcription factor DNA binding domain and the nuclear localization signal from the T-antigen of Polyoma Virus in the eucaryotic expression vector pSG5 (Stratagene). The resulting expression vectors pSGGAL-LXRalpha and pSGGAL-LXRbeta were used in cotransfection experiments together with the pGL3 luciferase reporter plasmid containing a minimal SV40 promoter (Promega) and five copies of the UAS GAL4 recognition site. 2.5 μg pSGGAL-LXRalpha or beta were mixed with […] pGL3 5xUAS and 22.5 μg pBluscript (Stratagene) in 0.95 mL ice cold PBS containing approx. 4-9 milj. U2/OS osteosarcoma cells. After a five minute incubation on ice the cell/DNA mixture was electroporated in 0.4 cm cuvettes at 960 μF, 230 V using a BioRad electroporator and diluted to 0.32 milj cells/mL in complete DMEM [Dulbecco's Modified Eagle Medium w/o phenol red, (Gibco 11880-028) including 10% FBS (Foetal Bovine Serum), 1% PEST (Penicillin Streptomycin), 20 mM Hepes, 2 mM L-Glutamine and 0.36% Glucose Gibco 31966-021] medium. […] Luciferase activity was measured as Luminescence in the Wallac Victor reader after 15 min. incubation at room temperature. […]

- EC50: 960 nM
SMILES: CCCCN1C(=S)C(Nc2ccc(OC(F)F)cc2)=C(c2ccccc2)S1(=O)=O [Example 1, 2-Butyl-4-{[4-(difluoromethoxy)phenyl]amino}-5-phenylisothiazole-3(2H)-thione 1,1-dioxide]
